Experimental data reported in patent US20240000075A1, “FUNGICIDAL ARYL AMIDINES” (CORTEVA AGRISCIENCE LLC, priority 2020, published 2024).
Where two headings read alike, the source gives them in different places.

What was measured:
Phakopsora pachyrhizi = test: Asian soybean rust, whole-plant fungicidal activity (PHAKPA); format: in vivo; conditions: read-out: % Disease Control Rating PHAKPA
Experimental: Example C: Evaluation of Fungicidal Activity: Asian Soybean Rust (Phakopsora pachyrhizi; Bayer Code […]) Technical grades of materials were dissolved in acetone, which were then mixed with nine volumes of H2O containing 0.011% Tween-20. The fungicide solutions were applied onto soybean seedlings using an automated booth sprayer to run-off. All sprayed plants were allowed to air dry prior to further handling. Soybean plants (variety 'Williams 82') were grown in soil-less potting mix, with one plant per pot. Ten-day-old seedlings were used for testing. Plants were inoculated as described in Example A. Plants were incubated for 24 h in a dark dew room with 100% relative humidity then transferred to a growth room for disease to develop. Fungicide formulation and application were made as described in Example A. When disease symptoms were fully expressed, disease severity was assessed on the sprayed leaves on a scale of 0 to 100 percent. Percent disease control was calculated using the ratio of disease severity on treated plants relative to untreated plants.

Zymoseptoria tritici = test: Septoria leaf blotch of wheat, whole-plant fungicidal activity (SEPTTR); format: in vivo, Zymoseptoria tritici on wheat plants (variety 'Yuma'); conditions: read-out: % Disease Control Rating SEPTTR
Experimental: Example A: Evaluation of Fungicidal Activity: Septoria Leaf Blotch of Wheat (Zymoseptoria tritici; Bayer Code […]) Technical grades of materials were dissolved in acetone, which were then mixed with nine volumes of water (H2O) containing 110 ppm Triton X-100. The fungicide solutions were applied onto wheat seedlings using an automated booth sprayer to run-off. All sprayed plants were allowed to air dry prior to further handling. All fungicides were evaluated using the aforementioned method for their activity vs. all target diseases, unless stated otherwise. Wheat plants (variety 'Yuma') were grown from seed in a greenhouse in soil-less potting mix until the first leaf was fully emerged, with 7-10 seedlings per pot. These plants were inoculated with an aqueous spore suspension of Zymoseptoria tritici either 3 days prior to fungicide treatment (3 day curative; 3DC) or 1 day after fungicide treatment (1 day protectant; 1DP). After inoculation the plants were kept in 100% relative humidity for three days to permit spores to germinate and infect the leaf. The plants were then transferred to a greenhouse for disease to develop. When disease symptoms were fully expressed on the 1st leaves of untreated plants, infection levels were assessed on a scale of 0 to 100 percent disease severity. Percent disease control was calculated using the ratio of disease severity on treated plants relative to untreated plants.

Rhynchosporium commune = test: Leaf blotch of barley, whole-plant fungicidal activity (RHYNSE); format: in vivo; conditions: 24 h, 1DP (1 day protectant), read-out: % Disease Control Rating RHYNSE
Experimental: Technical grades of materials were dissolved in acetone, which were then mixed with nine volumes of water (H2O) containing 110 ppm Triton X-100. The fungicide solutions were applied onto wheat seedlings using an automated booth sprayer to run-off. All sprayed plants were allowed to air dry prior to further handling. All fungicides were evaluated using the aforementioned method for their activity vs. all target diseases, unless stated otherwise. Example D: Evaluation of Fungicidal Activity: Leaf Blotch of Barley (Rhynchosporium commune; Bayer Code […]) Barley plants (variety 'Harrington') were grown from seed in a greenhouse in soil-less potting mix until the first leaf was fully emerged, with 7-10 seedlings per pot. These plants were inoculated with an aqueous spore suspension of Rhynchosporium commune after fungicide treatments. After inoculation, the plants were kept in a dark dew room with 100% relative humidity for two days to permit spores to germinate and infect the leaf. The plants were then transferred to a greenhouse for disease to develop. Fungicide formulation and application were made as described in Example A. Disease assessment was conducted as described in Example A.

Puccinia triticina = test: Wheat brown rust, whole-plant fungicidal activity (PUCCRT); format: in vivo, Puccinia triticina on wheat plants (variety 'Yuma'); conditions: 24 h, 1DP (1 day protectant), read-out: % Disease Control Rating PUCCRT
Experimental: Technical grades of materials were dissolved in acetone, which were then mixed with nine volumes of water (H2O) containing 110 ppm Triton X-100. The fungicide solutions were applied onto wheat seedlings using an automated booth sprayer to run-off. All sprayed plants were allowed to air dry prior to further handling. All fungicides were evaluated using the aforementioned method for their activity vs. all target diseases, unless stated otherwise.
Example B: Evaluation of Fungicidal Activity: Wheat Brown Rust (Puccinia triticina; Synonym: Puccinia recondita f sp. tritici; Bayer Code PUCCRT)
Wheat plants (variety ‘Yuma’) were grown from seed in a greenhouse in soil-less potting mix until the first leaf was fully emerged, with 7-10 seedlings per pot. These plants were inoculated with an aqueous spore suspension of Puccinia triticina after fungicide treatments. After inoculation, the plants were kept in a dark dew room with 100% relative humidity overnight to permit spores to germinate and infect the leaf. The plants were then transferred to a greenhouse for disease to develop. Fungicide formulation, application and disease assessment followed the procedures as described in Example A.

Structure (SMILES)	pest or weed control at 200 ppm (Phakopsora pachyrhizi; 24 h, 1DP (1 day protectant)) [%]	pest or weed control at 200 ppm (Phakopsora pachyrhizi; 72 h, 3DC (3 day curative)) [%]	pest or weed control at 200 ppm (Zymoseptoria tritici; 24 h, 1DP (1 day protectant)) [%]	pest or weed control at 200 ppm (Zymoseptoria tritici; 72 h, 3DC (3 day curative)) [%]	pest or weed control at 200 ppm (Rhynchosporium commune) [%]	pest or weed control at 200 ppm (Puccinia triticina) [%]
CCN(C)/C=N/c1ccc(C(=O)Cc2ccccc2)c(C)c1C [Compound 16]	50 to 85	> 85	< 20	< 20	< 20	< 20
Cc1cc(C(=O)CC2CCCC2)c(C)cc1/N=C/N(C)C [Compound 73, (E)-N′-(4-(2-cyclopentylacetyl)-2,5-dimethylphenyl)-N,N-dimethylformimidamide]	> 85	> 85	< 20	< 20	< 20	> 85
CCN(C)/C(C)=N/c1cc(C)c(C(=O)CC2CCCC2)cc1C [Compound 90]	> 85	> 85	< 20	< 20	20 to 50	> 85
CCc1cccc(CC(=O)c2cc(C)c(/N=C/N(C)CC)cc2C)c1 [Compound 70]	> 85	> 85	50 to 85	< 20	> 85	> 85
CCCc1ccc(CC(=O)c2cc(C)c(/N=C/N(C)CC)cc2C)cc1 [Compound 64]	> 85	> 85	50 to 85	< 20	> 85	> 85
CCN(C)/C=N/c1cc(C)c(C(=O)CC2CCCC2)cc1OC [Compound 74]	> 85	> 85	< 20	< 20	50 to 85	> 85
Cc1cc(C(=O)Cc2c(F)cc(F)cc2F)c(C)cc1/N=C/N(C)C [Compound 76]	> 85		< 20	< 20	< 20	> 85
Cc1cc(C(=O)CC2CCCCC2)c(C)cc1/N=C/N(C)Cc1ccccc1 [Compound 56]	< 20	< 20	< 20	< 20	< 20	20 to 50
CCN(C)/C=N/c1ccc(C(=O)Cc2c(F)cc(F)cc2F)cc1C [Compound 104]	50 to 85	> 85				> 85
CCN(C)/C=N/c1cc(C)c(C(=O)Cc2ccc(Cl)cc2F)cc1C [Compound 32]	> 85	> 85	> 85	< 20	> 85	> 85
CCN(C)/C=N/c1cc(C)c(C(=O)Cc2cccc(C(F)(F)F)c2F)cc1C [Compound 36]	> 85	> 85		< 20	50 to 85	> 85
CCN(C)/C=N/c1ccc(C(=O)Cc2ccc(C)cc2F)c(C)c1C [Compound 11]	> 85	> 85	< 20	< 20	< 20	< 20
CCN(C)/C=N/c1cc(C)c(C(=O)Cc2c(F)cc(F)cc2F)cc1OC [Compound 89]	50 to 85	20 to 50	< 20	< 20	20 to 50	> 85
CCN(C)/C=N/c1cc(OC)c(C(=O)CC2CCCC2)cc1C [Compound 35]	> 85	> 85	50 to 85	< 20	> 85	> 85
CCN(C)/C=N/c1cc(C)c(C(=O)CC(C)(C)C)cc1C [Compound 21]	> 85	> 85	50 to 85	< 20	> 85	> 85
CCN(C)/C=N/c1cc(OC)c(C(=O)C2CCC2)cc1C [Compound 99]	> 85	> 85				> 85
CCN(C)/C=N/c1ccc(C(=O)C2CCC2)cc1C [Compound 95]	20 to 50	20 to 50				> 85
CCN(C)/C=N/c1cc(C(F)(F)F)c(C(=O)C2CCC2)cc1C [Compound 98]	20 to 50	20 to 50				< 20
CCN(C)/C=N/c1ccc(C(=O)C2CCC2)c(C)c1 [Compound 101]	< 20	< 20				< 20
Cc1cc(C(=O)CC2CCCCC2)c(C)cc1/N=C/N(C)c1ccccc1 [Compound 44]	< 20	< 20				
CCN(C)/C=N/c1cc(C)c(C(=O)C2CCC2)cc1C(F)(F)F [Compound 100]	> 85	> 85				> 85
CCN(C)/C=N/c1ccc(C(=O)CC2CCCC2)cc1 [Compound 97]	50 to 85	50 to 85				50 to 85
CCN(C)/C=N/c1cc(C)c(C(=O)C2CCC2)cc1OC [Compound 103]	20 to 50	> 85				50 to 85
CCN(C)/C=N/c1cc(C)c(C(=O)C2CCC2)cc1F [Compound 102]	50 to 85	> 85				> 85
Cc1cc(C(=O)CC2CCCCC2)c(C)cc1/N=C/N1CCCC1 [Compound 41]	> 85	> 85				
Cc1cc(C(=O)CC2CCCCC2)c(C)cc1/N=C/N1CCOCC1 [Compound 43]	< 20	< 20				
C=CCN(C)/C=N/c1cc(C)c(C(=O)CC2CCCCC2)cc1C [Compound 39]	50 to 85	> 85				
Cc1cc(C(=O)CC2CCCCC2)c(C)cc1/N=C/N1CCCCC1 [Compound 42]	> 85	> 85				
Cc1cc(C(=O)CC2CCCCC2)c(C)cc1/N=C/N(C)C1CCCCC1 [Compound 40]	< 20	< 20				
